From ChEMBL document CHEMBL5291721, “A preclinical secondary pharmacology resource illuminates target-adverse drug reaction associations of marketed drugs” (Nat Commun, 2023)

What was measured:
[1] = target: Gamma-aminobutyric acid receptor subunit alpha-1/alpha-2/beta-2/gamma-2 (Homo sapiens, UniProt P14867+P18507+P47869+P47870); format: functional, cell-based
[2] = target: T1, Peroxisome proliferator-activated receptor gamma (Homo sapiens, UniProt P37231); format: functional
T1 sequence (P37231 whole entry): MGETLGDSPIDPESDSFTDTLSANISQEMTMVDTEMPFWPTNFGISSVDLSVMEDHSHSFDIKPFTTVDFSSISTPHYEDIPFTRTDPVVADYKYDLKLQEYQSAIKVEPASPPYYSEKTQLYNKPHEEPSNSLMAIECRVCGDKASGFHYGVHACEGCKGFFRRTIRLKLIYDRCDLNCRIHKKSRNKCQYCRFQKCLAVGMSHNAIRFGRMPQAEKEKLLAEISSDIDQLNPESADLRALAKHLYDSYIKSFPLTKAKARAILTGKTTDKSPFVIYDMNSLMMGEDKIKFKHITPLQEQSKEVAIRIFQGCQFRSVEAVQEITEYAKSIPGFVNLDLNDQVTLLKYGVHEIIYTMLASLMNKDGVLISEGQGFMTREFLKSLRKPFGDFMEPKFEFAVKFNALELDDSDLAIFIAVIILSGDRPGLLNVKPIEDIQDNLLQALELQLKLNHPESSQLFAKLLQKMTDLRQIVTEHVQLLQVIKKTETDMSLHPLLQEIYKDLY

[3] = target: T2, Neuropeptide Y receptor type 2 (Homo sapiens, UniProt P49146)
T2 sequence (P49146 whole entry): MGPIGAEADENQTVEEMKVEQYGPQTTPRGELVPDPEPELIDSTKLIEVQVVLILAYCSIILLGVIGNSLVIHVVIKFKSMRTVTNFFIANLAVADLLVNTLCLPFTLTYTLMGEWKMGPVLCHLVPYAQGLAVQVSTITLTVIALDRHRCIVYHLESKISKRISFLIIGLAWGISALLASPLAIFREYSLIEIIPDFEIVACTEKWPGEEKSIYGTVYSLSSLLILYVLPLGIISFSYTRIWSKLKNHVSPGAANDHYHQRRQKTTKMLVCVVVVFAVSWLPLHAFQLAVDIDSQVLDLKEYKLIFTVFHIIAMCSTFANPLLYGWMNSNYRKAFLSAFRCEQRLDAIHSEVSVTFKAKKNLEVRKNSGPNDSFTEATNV

[4] = target: T3, 5-hydroxytryptamine receptor 1A (Homo sapiens, UniProt P08908)
T3 sequence (P08908 whole entry): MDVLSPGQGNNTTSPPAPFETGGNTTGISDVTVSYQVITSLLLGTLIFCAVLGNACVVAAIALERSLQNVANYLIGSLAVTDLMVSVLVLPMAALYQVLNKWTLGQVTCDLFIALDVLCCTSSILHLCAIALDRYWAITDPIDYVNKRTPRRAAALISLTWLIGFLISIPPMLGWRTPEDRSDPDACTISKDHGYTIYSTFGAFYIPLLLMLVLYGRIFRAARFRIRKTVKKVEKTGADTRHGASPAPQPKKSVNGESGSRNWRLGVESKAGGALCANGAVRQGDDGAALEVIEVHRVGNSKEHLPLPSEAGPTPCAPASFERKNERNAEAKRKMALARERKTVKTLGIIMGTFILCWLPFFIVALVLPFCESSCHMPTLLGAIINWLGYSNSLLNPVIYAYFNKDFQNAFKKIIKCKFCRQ

Glucagon receptor = Glucagon receptor (Homo sapiens, UniProt P47871)
Glucagon receptor, sequence (P47871 whole entry): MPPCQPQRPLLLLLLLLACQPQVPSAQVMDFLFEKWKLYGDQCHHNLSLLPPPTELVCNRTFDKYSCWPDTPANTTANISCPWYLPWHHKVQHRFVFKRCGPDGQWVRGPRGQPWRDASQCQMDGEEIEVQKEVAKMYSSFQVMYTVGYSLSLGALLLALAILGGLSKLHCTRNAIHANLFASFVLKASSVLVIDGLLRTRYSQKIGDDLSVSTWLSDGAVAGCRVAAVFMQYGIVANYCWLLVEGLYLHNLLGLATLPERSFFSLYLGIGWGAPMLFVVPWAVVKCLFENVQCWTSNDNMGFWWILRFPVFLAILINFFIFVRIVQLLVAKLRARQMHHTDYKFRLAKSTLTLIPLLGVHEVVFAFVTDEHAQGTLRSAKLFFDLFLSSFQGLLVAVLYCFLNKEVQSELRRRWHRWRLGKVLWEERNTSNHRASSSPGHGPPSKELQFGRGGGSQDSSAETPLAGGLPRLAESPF

[5] = target: T4, Muscarinic acetylcholine receptor M2 (Homo sapiens, UniProt P08172)
T4 sequence (P08172 whole entry): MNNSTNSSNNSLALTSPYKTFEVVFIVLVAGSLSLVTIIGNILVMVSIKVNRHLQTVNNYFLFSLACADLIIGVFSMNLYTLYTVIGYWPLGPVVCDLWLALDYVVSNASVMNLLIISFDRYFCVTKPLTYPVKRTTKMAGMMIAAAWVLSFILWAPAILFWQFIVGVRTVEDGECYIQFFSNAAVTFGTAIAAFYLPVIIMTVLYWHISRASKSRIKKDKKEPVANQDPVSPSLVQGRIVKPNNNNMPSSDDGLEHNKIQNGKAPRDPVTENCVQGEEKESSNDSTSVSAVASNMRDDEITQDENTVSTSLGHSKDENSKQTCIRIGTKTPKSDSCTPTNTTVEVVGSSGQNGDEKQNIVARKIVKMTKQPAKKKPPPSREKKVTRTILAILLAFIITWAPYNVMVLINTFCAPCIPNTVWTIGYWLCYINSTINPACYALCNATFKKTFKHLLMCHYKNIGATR

[6] = target: T5, Corticotropin-releasing factor receptor 2 (Homo sapiens, UniProt Q13324)
T5 sequence (Q13324 whole entry): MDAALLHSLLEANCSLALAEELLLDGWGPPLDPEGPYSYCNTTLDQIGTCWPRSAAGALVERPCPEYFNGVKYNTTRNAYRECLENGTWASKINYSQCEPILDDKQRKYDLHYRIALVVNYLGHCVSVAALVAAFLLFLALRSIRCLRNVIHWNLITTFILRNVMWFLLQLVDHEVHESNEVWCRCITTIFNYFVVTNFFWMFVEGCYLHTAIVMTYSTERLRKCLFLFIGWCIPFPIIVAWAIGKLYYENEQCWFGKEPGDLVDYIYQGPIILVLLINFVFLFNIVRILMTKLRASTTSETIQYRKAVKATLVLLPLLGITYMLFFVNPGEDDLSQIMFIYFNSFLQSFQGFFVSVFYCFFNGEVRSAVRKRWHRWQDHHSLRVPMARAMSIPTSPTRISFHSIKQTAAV

Histamine H2 receptor = Histamine H2 receptor (Homo sapiens, UniProt P25021)
Histamine H2 receptor, sequence (P25021 whole entry): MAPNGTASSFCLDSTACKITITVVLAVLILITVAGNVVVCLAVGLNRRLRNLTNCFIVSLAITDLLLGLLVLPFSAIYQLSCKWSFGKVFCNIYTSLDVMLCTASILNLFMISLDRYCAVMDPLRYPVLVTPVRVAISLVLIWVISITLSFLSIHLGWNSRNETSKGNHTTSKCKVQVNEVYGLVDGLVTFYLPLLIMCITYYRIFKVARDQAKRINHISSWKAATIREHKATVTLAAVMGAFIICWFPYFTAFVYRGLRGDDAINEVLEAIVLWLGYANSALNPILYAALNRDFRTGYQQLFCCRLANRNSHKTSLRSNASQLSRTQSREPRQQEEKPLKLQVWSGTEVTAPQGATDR
Note: assay procedure not described here.

Gamma-aminobutyric acid receptor subunit alpha-1/alpha-2/beta-2/gamma-2, sequence (P14867 whole entry): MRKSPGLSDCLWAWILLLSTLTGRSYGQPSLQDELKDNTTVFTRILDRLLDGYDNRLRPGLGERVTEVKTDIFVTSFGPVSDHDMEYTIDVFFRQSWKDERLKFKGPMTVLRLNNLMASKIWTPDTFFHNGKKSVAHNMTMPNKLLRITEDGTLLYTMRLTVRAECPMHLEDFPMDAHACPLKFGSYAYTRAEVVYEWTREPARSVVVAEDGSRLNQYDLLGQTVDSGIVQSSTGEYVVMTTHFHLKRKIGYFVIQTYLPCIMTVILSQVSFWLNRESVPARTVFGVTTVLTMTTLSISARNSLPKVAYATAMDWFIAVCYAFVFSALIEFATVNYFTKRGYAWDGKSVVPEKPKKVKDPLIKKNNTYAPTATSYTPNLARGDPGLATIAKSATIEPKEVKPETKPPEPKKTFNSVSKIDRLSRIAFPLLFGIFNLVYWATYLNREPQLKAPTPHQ
Gamma-aminobutyric acid receptor subunit alpha-1/alpha-2/beta-2/gamma-2, sequence (P47870 whole entry): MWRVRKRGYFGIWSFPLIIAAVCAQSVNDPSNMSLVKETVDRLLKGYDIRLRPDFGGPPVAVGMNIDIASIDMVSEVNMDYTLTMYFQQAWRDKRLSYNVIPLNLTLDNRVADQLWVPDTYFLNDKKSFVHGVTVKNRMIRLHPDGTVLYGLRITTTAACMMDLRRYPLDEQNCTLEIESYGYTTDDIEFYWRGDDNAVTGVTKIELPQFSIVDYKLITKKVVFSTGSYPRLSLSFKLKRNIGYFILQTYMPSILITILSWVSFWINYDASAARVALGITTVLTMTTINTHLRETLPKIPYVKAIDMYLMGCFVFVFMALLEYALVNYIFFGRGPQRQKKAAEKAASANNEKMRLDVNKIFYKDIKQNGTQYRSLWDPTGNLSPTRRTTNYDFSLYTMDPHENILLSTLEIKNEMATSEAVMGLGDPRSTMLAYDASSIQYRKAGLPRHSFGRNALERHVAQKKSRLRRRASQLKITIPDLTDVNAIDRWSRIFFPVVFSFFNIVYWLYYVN
Gamma-aminobutyric acid receptor subunit alpha-1/alpha-2/beta-2/gamma-2, sequence (P18507 whole entry): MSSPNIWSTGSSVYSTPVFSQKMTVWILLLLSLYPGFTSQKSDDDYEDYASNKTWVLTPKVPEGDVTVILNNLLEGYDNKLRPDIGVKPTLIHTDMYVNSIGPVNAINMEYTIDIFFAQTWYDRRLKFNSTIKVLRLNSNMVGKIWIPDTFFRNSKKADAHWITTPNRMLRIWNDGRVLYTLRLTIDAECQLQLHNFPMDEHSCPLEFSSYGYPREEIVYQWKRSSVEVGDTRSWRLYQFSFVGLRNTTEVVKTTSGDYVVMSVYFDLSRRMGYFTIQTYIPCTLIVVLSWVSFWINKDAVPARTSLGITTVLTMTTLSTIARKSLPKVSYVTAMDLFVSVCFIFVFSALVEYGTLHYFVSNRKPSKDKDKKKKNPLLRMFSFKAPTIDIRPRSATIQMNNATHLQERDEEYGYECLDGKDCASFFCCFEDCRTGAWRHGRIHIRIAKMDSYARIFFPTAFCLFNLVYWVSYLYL
Gamma-aminobutyric acid receptor subunit alpha-1/alpha-2/beta-2/gamma-2, sequence (P47869 whole entry): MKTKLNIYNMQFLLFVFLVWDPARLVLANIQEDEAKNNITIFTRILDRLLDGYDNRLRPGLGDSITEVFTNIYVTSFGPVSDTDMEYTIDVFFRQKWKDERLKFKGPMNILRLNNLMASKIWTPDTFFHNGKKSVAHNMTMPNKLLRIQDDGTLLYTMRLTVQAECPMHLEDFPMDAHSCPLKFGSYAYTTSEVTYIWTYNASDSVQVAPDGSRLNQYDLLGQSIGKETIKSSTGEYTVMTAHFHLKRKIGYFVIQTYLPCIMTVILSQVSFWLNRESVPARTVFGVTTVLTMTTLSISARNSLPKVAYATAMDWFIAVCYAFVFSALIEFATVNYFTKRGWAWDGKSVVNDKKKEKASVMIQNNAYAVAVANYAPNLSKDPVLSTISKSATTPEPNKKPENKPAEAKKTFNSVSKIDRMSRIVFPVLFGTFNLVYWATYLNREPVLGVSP

Row | Structure (SMILES) | AC50 [1] | AC50 [2] | AC50 [3] | AC50 [4] | AC50 (Glucagon receptor) | AC50 [5] | AC50 [6] | AC50 (Histamine H2 receptor)
1 | CO/N=C(\C(=O)N[C@@H]1C(=O)N2C(C(=O)[O-])=C(C[N+]3(C)CCCC3)CS[C@H]12)c1csc(N)n1 | > 2400 µM | > 300 µM |  |  |  |  |  | 
2 | CC(=O)c1ccc2c(c1)N(CCCN1CCN(CCO)CC1)c1ccccc1S2 [ACETOPHENAZINE] | > 30 µM | > 30 µM |  |  |  |  |  | 
3 | CC(N)Cc1ccccc1 (stereo not given) [AMPHETAMINE] | > 30 µM | > 30 µM | > 30 µM | > 10 µM | > 30 µM | > 10 µM | > 30 µM | 
4 | CN1CCCC(n2nc(Cc3ccc(Cl)cc3)c3ccccc3c2=O)CC1 (stereo not given) [AZELASTINE] | > 30 µM | > 30 µM |  |  |  |  |  | 
5 | N[C@@H](C(=O)N[C@@H]1C(=O)N2C(C(=O)O)=C(Cl)CS[C@H]12)c1ccccc1 [CEFACLOR ANHYDROUS] | > 30 µM | > 30 µM |  |  |  |  |  | 
6 | COC(=O)[C@@H]1CC2=CC(=O)CC[C@]2(C)[C@@]23O[C@@H]2C[C@@]2(C)[C@@H](CC[C@@]24CCC(=O)O4)[C@H]13 [EPLERENONE] | > 30 µM | > 30 µM | > 30 µM | > 10 µM | > 30 µM | > 10 µM | > 30 µM | > 10 µM
7 | CC(C)Cc1ccc(CC(=O)O)cc1 [IBUFENAC] | > 30 µM | > 30 µM |  |  |  |  |  | 
8 | CC(C)NNC(=O)c1ccncc1 [IPRONIAZID] | > 30 µM | > 30 µM |  |  |  |  |  | 
9 | NC(=O)c1ncn([C@@H]2O[C@H](CO)[C@@H](O)[C@H]2O)c1O [MIZORIBINE] | > 30 µM | > 30 µM |  |  |  |  |  | 
10 | OCCN1CCN(CCCN2c3ccccc3C=Cc3ccccc32)CC1 [OPIPRAMOL] | > 30 µM | > 30 µM |  |  |  |  |  | 
11 | CC[C@H](C)C(=O)O[C@H]1C[C@H](O)C=C2C=C[C@H](C)[C@H](CC[C@@H](O)C[C@@H](O)CC(=O)O)[C@H]21 [PRAVASTATIN] | > 30 µM | > 30 µM |  |  |  |  |  | 
12 | OCc1cc([C@@H](O)CNCCCCCCOCCOCc2c(Cl)cccc2Cl)ccc1O [VILANTEROL] | > 30 µM | > 30 µM |  |  |  |  |  | 
